The test has as its target TPK enzyme (Homo sapiens (Human), UniProt Q9H3S4). In words: TPK enzyme activity test. The class given is biochemical. The conditions noted are these: for Emax: calculated with the effect of DMSO on TPK enzyme activity as 100%; for EC50: promoting effect on TPK enzyme activity.

Read-outs that look alike come from different tables or passages of the source.

Emax and EC50 data for 37 molecules are collected here from patent publication US20250388584A1, “TPK AGONIST AND METHOD FOR TREATING NEURODEGENERATIVE DISEASES USING SAME” (SHANGHAI RAISING PHARMACEUTICAL CO., LTD., priority 2022, published 2025).

Sequence of TPK enzyme (Q9H3S4 whole entry): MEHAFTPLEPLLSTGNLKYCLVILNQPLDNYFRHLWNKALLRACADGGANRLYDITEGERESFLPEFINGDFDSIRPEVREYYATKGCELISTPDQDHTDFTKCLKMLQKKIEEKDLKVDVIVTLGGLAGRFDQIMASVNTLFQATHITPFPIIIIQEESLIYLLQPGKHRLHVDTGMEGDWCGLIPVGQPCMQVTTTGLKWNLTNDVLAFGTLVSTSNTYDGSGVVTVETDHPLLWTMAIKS

Usually Emax stands for the maximal effect, on the per cent scale that the assay sets. Usually EC50 stands for the concentration at which the effect is half-maximal. Lower therefore signals higher potency in that assay. `Cc1ccc2[nH]c3c(=O)n(CCC(=O)N4CCN(c5cccc(Cl)c5Cl)CC4)cnc3c2c1` [Compound 1, 3-(3-(4-(2,3-dichlorophenyl)piperazin-1-yl)-3-oxopropyl)-8-methyl-3,5-dihydro-4H-pyrimido[5,4-b]indol-4-one] gave an EC50 of 110 nM. Moreover, the Emax (read-out: Emax) is 159%.

Turning to `Cc1ccc2[nH]c3c(=O)n(CCC(=O)N4CCN(c5cc(Cl)ccc5Cl)CC4)cnc3c2c1` [Compound 2, 3-(3-(4-(2,5-dichlorophenyl)piperazin-1-yl)-3-oxopropyl)-8-methyl-3,5-dihydro-4H-pyrimido[5,4-b]indol-4-one], the midpoint of the response, the EC50, lay at 2050 nM. Moreover, for the setting “read-out: Emax”, the Emax is 149%.

`Cc1ccc2c(c1)[nH]c1c(=O)n(CCC(=O)N3CCN(c4ccc(Cl)cc4Cl)CC3)cnc12` [Compound 3, 3-(3-(4-(2,4-dichlorophenyl)piperazin-1-yl)-3-oxopropyl)-7-methyl-3,5-dihydro-4H-pyrimido[5,4-b]indol-4-one] had an EC50 of 1780 nM. Moreover, the Emax (read-out: Emax) is 136%. For the molecule `Cc1ccc2[nH]c3c(=O)n(CCC(=O)N4CCN(c5ccccc5C(F)(F)F)CC4)cnc3c2c1` [Compound 4, 8-methyl-3-(3-oxo-3-(4-(2-(trifluoromethyl)phenyl)piperazin-1-yl)propyl)-3,5-dihydro-4H-pyrimido[5,4-b]indol-4-one], the Emax (read-out: Emax) was 128%. For the molecule `O=C(CCn1cnc2c([nH]c3ccccc32)c1=O)N1CCN(c2cccc(C(F)(F)F)c2)CC1` [Compound 5, 3-(3-oxo-3-(4-(3-(trifluoromethyl)phenyl)piperazin-1-yl)propyl)-3,5-dihydro-4H-pyrimido[5,4-b]indol-4-one], the EC50 worked out at 2290 nM. The Emax (read-out: Emax) was 139%. The matching figures for `O=C(CCn1cnc2c([nH]c3ccc(C(F)(F)F)cc32)c1=O)N1CCN(c2cccc(C(F)(F)F)c2)CC1` [Compound 6, 3-(3-oxo-3-(4-(3-(trifluoromethyl)phenyl)piperazin-1-yl)propyl)-8-(trifluoromethyl)-3,5-dihydro-4H-pyrimido[5,4-b]indol-4-one]: 1030 nM and 208%.

Molecule `Cc1ccc2[nH]c3c(=O)n(CCC(=O)N4CCN(c5ccc(Cl)cc5Cl)CC4)cnc3c2c1` [Compound 7, 3-(3-(4-(2,4-dichlorophenyl)piperazin-1-yl)-3-oxopropyl)-8-methyl-3,5-dihydro-4H-pyrimido[5,4-b]indol-4-one] came in with an EC50 of 2320 nM. Besides, the Emax (read-out: Emax) was 148%. The matching figures for `Cc1ccc2[nH]c3c(=O)n(CCC(=O)N4CCN(c5ccc(Cl)c(Cl)c5)CC4)cnc3c2c1` [Compound 9, 3-(3-(4-(3,4-dichlorophenyl)piperazin-1-yl)-3-oxopropyl)-8-methyl-3,5-dihydro-4H-pyrimido[5,4-b]indol-4-one]: 768 nM and 147%. The matching figures for `Cc1ccc2[nH]c3c(=O)n(CCC(=O)N4CCN(c5ccc(C(F)(F)F)cc5)CC4)cnc3c2c1` [Compound 10, 8-methyl-3-(3-oxo-3-(4-(4-(trifluoromethyl)phenyl)piperazin-1-yl)propyl)-3,5-dihydro-4H-pyrimido[5,4-b]indol-4-one]: 1150 nM and 157%. The matching figures for `Cc1cccc2[nH]c3c(=O)n(CCC(=O)N4CCN(c5cccc(C(F)(F)F)c5)CC4)cnc3c12` [Compound 11, 9-methyl-3-(3-oxo-3-(4-(3-(trifluoromethyl)phenyl)piperazin-1-yl)propyl)-3,5-dihydro-4H-pyrimido[5,4-b]indol-4-one]: 1080 nM and 180%.

For `O=C(CCn1cnc2c([nH]c3ccc(Br)cc32)c1=O)N1CCN(c2cccc(C(F)(F)F)c2)CC1` [Compound 12, 8-bromo-3-(3-oxo-3-(4-(3-(trifluoromethyl)phenyl)piperazin-1-yl)propyl)-3,5-dihydro-4H-pyrimido[5,4-b]indol-4-one], the Emax (read-out: Emax) is 205%.

Regarding `Cc1ccc2c(c1)[nH]c1c(=O)n(CCC(=O)N3CCN(c4cccc(Cl)c4Cl)CC3)cnc12` [Compound 13, 3-(3-(4-(2,3-dichlorophenyl)piperazin-1-yl)-3-oxopropyl)-7-methyl-3,5-dihydro-4H-pyrimido[5,4-b]indol-4-one], the Emax (read-out: Emax) was 124%. In the case of `Cc1ccc2c(c1)[nH]c1c(=O)n(CCC(=O)N3CCN(c4cc(Cl)ccc4Cl)CC3)cnc12` [Compound 14, 3-(3-(4-(2,5-dichlorophenyl)piperazin-1-yl)-3-oxopropyl)-7-methyl-3,5-dihydro-4H-pyrimido[5,4-b]indol-4-one], the EC50 was 2440 nM. Moreover, the maximum response (Emax) (read-out: Emax) is 152%. The matching figures for `Cc1ccc2[nH]c3c(=O)n(CCCC(=O)N4CCN(c5cccc(Cl)c5Cl)CC4)cnc3c2c1` [Compound 15, 3-(4-(4-(2,3-dichlorophenyl)piperazin-1-yl)-4-oxobutyl)-8-methyl-3,5-dihydro-4H-pyrimido[5,4-b]indol-4-one]: 463 nM and 145%. The matching figures for `Cc1ccc2[nH]c3c(=O)n(CCC(=O)N4CCN(c5cc(C(F)(F)F)cc(C(F)(F)F)c5)CC4)cnc3c2c1` [Compound 16, 3-(3-(4-(3,5-bis(trifluoromethyl)phenyl)piperazin-1-yl)-3-oxopropyl)-8-methyl-3,5-dihydro-4H-pyrimido[5,4-b]indol-4-one]: 360 nM and 144%. For `Cc1ccc2[nH]c3c(=O)n(CCC(=O)N4CCN(c5cccc(Br)c5)CC4)cnc3c2c1` [Compound 18, 3-(3-(4-(3-bromophenyl)piperazin-1-yl)-3-oxopropyl)-8-methyl-3,5-dihydro-4H-pyrimido[5,4-b]indol-4-one], under “read-out: Emax”, the Emax was 159%. In turn, `Cc1ccc2c(c1)[nH]c1c(=O)n(CCC(=O)N3CCN(c4ccc(Cl)c(Cl)c4)CC3)cnc12` [Compound 19, 3-(3-(4-(3,4-dichlorophenyl)piperazin-1-yl)-3-oxopropyl)-7-methyl-3,5-dihydro-4H-pyrimido[5,4-b]indol-4-one] registered an EC50 of 2000 nM. In addition, for the setting “read-out: Emax”, the Emax is 145%. For `Cc1ccc2c(c1)[nH]c1c(=O)n(CCC(=O)N3CCN(c4c(Cl)cccc4Cl)CC3)cnc12` [Compound 20, 3-(3-(4-(2,6-dichlorophenyl)piperazin-1-yl)-3-oxopropyl)-7-methyl-3,5-dihydro-4H-pyrimido[5,4-b]indol-4-one], the Emax (read-out: Emax) is 121%.

`Cc1ccc2c(c1)[nH]c1c(=O)n(CCC(=O)N3CCN(c4cccc(C(F)(F)F)c4)CC3)cnc12` [Compound 22, 7-methyl-3-(3-oxo-3-(4-(3-(trifluoromethyl)phenyl)piperazin-1-yl)propyl)-3,5-dihydro-4H-pyrimido[5,4-b]indol-4-one]: for the setting “read-out: Emax”, the Emax was 207%. In the case of `Cc1cccc2c1[nH]c1c(=O)n(CCC(=O)N3CCN(c4cccc(C(F)(F)F)c4)CC3)cnc12` [Compound 23, 6-methyl-3-(3-oxo-3-(4-(3-(trifluoromethyl)phenyl)piperazin-1-yl)propyl)-3,5-dihydro-4H-pyrimido[5,4-b]indol-4-one], the Emax (read-out: Emax) was 121%. For the molecule `Cc1ccc2[nH]c3c(=O)n(CCC(=O)N4CCN(c5cccc(N)c5)CC4)cnc3c2c1` [Compound 26, 3-(3-(4-(3-aminophenyl)piperazin-1-yl)-3-oxopropyl)-8-methyl-3,5-dihydro-4H-pyrimido[5,4-b]indol-4-one], the EC50 is 2620 nM. For the same molecule, where the note is “read-out: Emax”, the Emax is 166%. On to `Cc1ccc2[nH]c3c(=O)n(CCC(=O)N4CCN(c5cccc(C(=O)O)c5)CC4)cnc3c2c1` [Compound 27, 3-(4-(3-(8-methyl-4-oxo-4,5-dihydro-3H-pyrimido[5,4-b]indol-3-yl)propanoyl)piperazin-1-yl)benzoic Acid], for which, for the setting “read-out: Emax”, the Emax is 122%.

Regarding `Cc1ccc2[nH]c3c(=O)n(CCC(=O)N4CCN(c5cccc(C(N)=O)c5)CC4)cnc3c2c1` [Compound 28, 3-(4-(3-(8-methyl-4-oxo-4,5-dihydro-3H-pyrimido[5,4-b]indol-3-yl)propanoyl)piperazin-1-yl)benzamide], the Emax (read-out: Emax) is 124%. `Cc1ccc(N2CCN(C(=O)CCn3cnc4c([nH]c5ccc(C)cc54)c3=O)CC2)c(C)c1` [Compound 31] returned an EC50 of 1210 nM. In addition, the Emax (read-out: Emax) was 151%. Regarding `Cc1ccc2[nH]c3c(=O)n(CCC(=O)N4CCN(c5ccccc5)CC4)cnc3c2c1` [Compound 32], the Emax (read-out: Emax) is 123%. The same measure, in the same setting: with `Cc1ccc2[nH]c3c(=O)n(CCC(=O)N4CCN(c5ccc(F)cc5)CC4)cnc3c2c1` [Compound 33] the figure was 123%. Molecule `Cc1ccc(C)c(N2CCN(C(=O)CCn3cnc4c([nH]c5ccc(C)cc54)c3=O)CC2)c1` [Compound 34] gave an EC50 of 1370 nM. Further, where the note is “read-out: Emax”, the Emax was 167%. Consider `CC(=O)c1ccc(N2CCN(C(=O)CCn3cnc4c([nH]c5ccc(C)cc54)c3=O)CC2)cc1` [Compound 35], for which, for the setting “read-out: Emax”, the Emax is 126%.

On to `Cc1cccc(N2CCN(C(=O)CCn3cnc4c([nH]c5ccc(C)cc54)c3=O)CC2)c1` [Compound 38], for which, for the setting “read-out: Emax”, the Emax was 145%. Take `O=C(CCn1cnc2c([nH]c3ccc(F)cc32)c1=O)N1CCN(c2cccc(C(F)(F)F)c2)CC1` [Compound 39]: the Emax (read-out: Emax) is 139%.

On to `Cc1ccc2[nH]c3c(=O)n(CCC(=O)N4CCN(c5ccccc5F)CC4)cnc3c2c1` [Compound 40], for which the Emax (read-out: Emax) was 125%. Regarding `Cc1ccc2[nH]c3c(=O)n(CC(=O)N4CCN(c5cccc(C(F)(F)F)c5)CC4)cnc3c2c1` [Compound 41], for the setting “read-out: Emax”, the Emax is 141%. In turn, `Cc1ccc2[nH]c3c(=O)n(CCC(=O)N4CCN(c5cc(Cl)ccc5C)CC4)cnc3c2c1` [Compound 42] registered a half-maximal effective concentration (EC50) of 3960 nM. The Emax (read-out: Emax) is 156%. `COc1cccc(N2CCN(C(=O)CCn3cnc4c([nH]c5ccc(C)cc54)c3=O)CC2)c1` [Compound 43]: the Emax (read-out: Emax) was 137%.

As to `Cc1ccc2[nH]c3c(=O)n(CCC(=O)N4CCN(c5cccc(C)c5C)CC4)cnc3c2c1` [Compound 44], the EC50 came out at 3300 nM. Moreover, for the setting “read-out: Emax”, the Emax was 152%.

The molecule `COc1cccc(N2CCN(C(=O)Cn3cnc4c([nH]c5ccc(C)cc54)c3=O)CC2)c1` [Compound 45] registered an EC50 of 1220 nM. Further, where the note is “read-out: Emax”, the Emax is 158%.

Regarding `Cc1ccc2[nH]c3c(=O)n(CCC(=O)N4CCN(c5ccc(F)cc5)CC4)cnc3c2c1` [Compound 46], the Emax is recorded as 122.50%.
